Measured values reported in patent publication US11530223B2, “Spiro-lactam NMDA receptor modulators and uses thereof” (Aptinyx Inc., priority 2016, dated 2022).
Like-named read-outs stand apart in the source and are kept apart here.

How the values were obtained:
NMDAR2B = target: T1, NMDAR2B (Homo sapiens, UniProt Q13224); experiment: [3H]MK-801 binding in NMDAR2B expressing HEK cell membranes; assay type: biochemical; design: key to B: log EC50: 0=−; ≥1×10^−9 M (e.g., −8)=+; <1×10^−9 M (e.g., −10)=++; settings: 50 μM glutamate; for Emax: read-out: A: % maximal [3H]MK-801 binding relative to 1 mM glycine; for EC50: read-out: B: log EC50 (converted)
T1 construct: expressed in transfected cells; host or cells: HEK cells (membrane extract)
Procedure: (§1) Assays were conducted as described by Moskal et al., “GLYX-13: a monoclonal antibody-derived peptide that acts as an N-methyl-D-aspartate receptor modulator,” Neuropharmacology, 49, 1077-87, 2005. These studies were designed to determine if the test compounds act to facilitate NMDAR activation in NMDAR2A, NMDAR2B, NMDAR2C or NMDAR2D expressing HEK cell membranes as measured by increases in [^3H]MK-801 binding.
(§2) In the assay, 300 μg of NMDAR expressing HEK cell membrane extract protein was preincubated for 15 minutes at 25° C. in the presence of saturating concentrations of glutamate (50 μM) and varying concentrations of test compound (1×10^−15M−1×10^−7M), or 1 mM glycine. Following the addition of 0.3 μCi of [^3H]MK-801 (22.5 Ci/mmol), reactions were again incubated for 15 minutes at 25° C. (nonequilibrium conditions). Bound and free [^3H]MK-801 were separated via rapid filtration using a Brandel apparatus.
(§3) In analyzing the data, the DPM (disintegrations per minute) of [^3H]MK-801 remaining on the filter were measured for each concentration of test compound or for 1 mM glycine. The DPM values for each concentration of a ligand (N=2) were averaged. The baseline value was determined from the best fit curve of the DPM values modeled using the GraphPad program and the log(agonist) vs. response (three parameters) algorithm was then subtracted from all points in the dataset. The % maximal [^3H]MK-801 binding was then calculated relative to that of 1 mM glycine: all baseline subtracted DPM values were divided by the average value for 1 mM glycine. The EC50 and % maximal activity were then obtained from the best fit curve of the % maximal [^3H]MK-801 binding data modelled using the GraphPad program and the log(agonist) vs. response (three parameters) algorithm.
(§4) The tables below summarize the results for the wild type […] NMDAR2A, NMDAR2B, NMDAR2C, and NMDAR2D, and whether the compound is not an agonist (−), is an agonist (+), or is a strong agonist (++), where column A is based on the % maximal [^3H]MK-801 binding relative to 1 mM glycine (−=0; <100%=+; and >100%=++); and column B is based on log EC50 values (0=−; ≥1×10^−9 M (e.g., −8)=+; and <1×10^−9 M (e.g., −10)=++).

IV pharmacokinetics = assay type: in vivo; settings: Sprague Dawley rats; for C0: normal saline (first four compounds: 5% NMP, 5% Solutol HS, 90% normal saline); for Vd: read-out: Vss
Procedure: Sprague Dawley rats were dosed intravenously using a normal saline formulation containing 2 mg/kg of the compounds identified in the below table (except for the first four compounds that were delivered in 5% NMP, 5% Solutol® HS and 90% normal saline formulation). The table below summarizes the results of the IV pharmacokinetics.

[1] = oral pharmacokinetics (plasma, brain, CSF); assay type: in vivo; settings: Sprague Dawley rats, per os 10 mg/kg; for Tmax: normal saline (first four compounds: 5% NMP, 5% Solutol HS, 90% normal saline)
Procedure: Plasma, brain, and CSF samples were analyzed at various time points over a 24 hour period.

NMDAR2A = target: T2, NMDAR2A (Homo sapiens, UniProt Q12879); experiment: [3H]MK-801 binding in NMDAR2A expressing HEK cell membranes; assay type: biochemical; settings: 50 μM glutamate; for Emax: read-out: A: % maximal [3H]MK-801 binding relative to 1 mM glycine; for EC50: read-out: B: log EC50 (converted)
T2 construct: expressed in transfected cells; host or cells: HEK cells (membrane extract)
Procedure: as §1, §2, §3, §4

Sprague Dawley rats = experiment: Porsolt forced swim test; assay type: in vivo; settings: 0.1 mg/kg; for % reduction in float time: relative to vehicle group
Procedure: A non-clinical in vivo pharmacology study (Porsolt assay) was performed to measure antidepressant-like effects. A negative control (0.5% sodium carboxymethyl cellulose in 0.9% sterile saline vehicle) and a positive control (fluoxetine) are shown for comparison against test compound. The study allowed for the evaluation of the effects of each compound on the Porsolt forced swim test as assessed by the rats' response (reduced floating time) during a 5-minute swimming test.
Male 2-3 month old Sprague Dawley rats were used (Harlan, Indianapolis, Ind.). Rats were housed in Lucite cages with aspen wood chip bedding, maintained on a 12:12 light:dark cycle (lights on at 5 AM), and given ad libitum access to Purina lab chow (USA) and tap water throughout the study.
The Porsolt forced swim test adapted for use in rats was performed as described by Burgdorf et al., (The long-lasting antidepressant effects of rapastinel (GLYX-13) are associated with a metaplasticity process in the medial prefrontal cortex and hippocampus. Neuroscience 308:202-211, 2015). Animals were placed in a 46 cm tall×20 cm in diameter clear glass tube filled to 30 cm with tap water (23±1° C.) for 15 min on the first day (habituation) and 5 min on the subsequent test day. Positive control fluoxetine was dosed 3 times (24 h, 5 h and 1 h) prior to testing. Animals were tested 1 h or 24 h post-dosing with the test compounds or vehicle. Animals received a 15 min habituation session 1 day before the 5 min test. A subset of compounds tested at 1 h post-dosing were retested at 1 wk post-dosing in the same sets of animals. Water was changed after every other animal. Animals were videotaped, and floating time as defined as the minimal amount of effort required to keep the animals head above water was scored offline by a blinded experimenter with high inter-rater reliability (Pearson's r>0.9).
Each compound tested at dose level shown. Significance vs. vehicle group for each experiment is marked. […] A compound marked “No” was not statistically significant from vehicle. Data was averaged for test compound and vehicle groups (N approximately 8 per group) and the percent reduction in floating for group treated with test compound relative to group treated with vehicle is shown.

NMDAR2D [2] = target: T3, NMDAR2D (Homo sapiens, UniProt O15399+Q05586); experiment: [3H]MK-801 binding in NMDAR2D expressing HEK cell membranes; assay type: biochemical; design: key to B: log EC50: 0=−; ≥1×10^−9 M (e.g., −8)=+; <1×10^−9 M (e.g., −10)=++; settings: second part of table; c3, taken as NMDAR2D; read-out: A: % maximal [3H]MK-801 binding relative to 1 mM glycine
T3 construct: expressed in transfected cells; host or cells: HEK cells (membrane extract)
Procedure: as §1, §2, §3, §4

rats = experiment: positive emotional learning (PEL) test, 50-kHz ultrasonic vocalizations; assay type: in vivo; settings: rat, PO, one hour after administration
Procedure: Experiments were conducted as described in Burgdorf et al., “The effect of selective breeding for differential rates of 50-kHz ultrasonic vocalizations on emotional behavior in rats,” Devel. Psychobiol., 51:34-46 (2009). Rat 50-kHz ultrasonic vocalization (hedonic USVs) is a validated model for the study of positive affective state and is best elicited by rough-and-tumble play.
The PEL assay measures the acquisition of positive (hedonic) 50-kHz ultrasonic vocalizations (USVs) to a social stimulus, heterospecific rough and tumble play stimulation. Heterospecific rough-and-tumble play stimulation was administered by the experimenter's right hand. One hour after administration of test compound or vehicle negative control (0.5% sodium carboxymethyl cellulose in 0.9% sterile saline vehicle), animals received 3 min of heterospecific rough-and-tumble play that consisted of alternating 15 sec blocks of heterospecific play and 15 sec of no-stimulation. High frequency ultrasonic vocalizations (USVs) were recorded and analyzed by sonogram with Avasoft SASlab Pro (Germany) as previously described by Burgdorf et al., “Positive emotional learning is regulated in the medial prefrontal cortex by GluN2B-containing NMDA receptors,” Neuroscience, 192:515-523 (2011). Frequency modulated 50-kHz USVs that occurred during each of the no-stimulation periods were quantified to measure PEL. Animals were not habituated to play stimulation before testing. Positive emotional learning was measured during the conditioned stimulus (CS) trials preceding the tickle unconditioned stimulus (UCS) trials. Animals received 15 second trials consisting of 6 CS and 6 UCS trials each (3 min total).
The table below summarizes the findings. As each experiment includes its own vehicle group, an example (typical) vehicle score is shown. Max effect (mean number of 50 kHz USVs per 15 seconds) is reported as ^: <6.0; *: 6.0-7.6; **: 7.7-10; ***:10.1-20

NMDAR2D [3] = target: T4, NMDAR2D (Homo sapiens, UniProt O15399); experiment: [3H]MK-801 binding in NMDAR2D expressing HEK cell membranes; assay type: biochemical; design: key to B: log EC50: 0=−; ≥1×10^−9 M (e.g., −8)=+; <1×10^−9 M (e.g., −10)=++; settings: for B: log EC50: second part of table, c4, taken as NMDAR2D
T4 construct: expressed in transfected cells; host or cells: HEK cells (membrane extract)
Procedure: as §1, §2, §3, §4

[4] = Sprague Dawley, rat, in vivo, iv, 2 mg/kg
[5] = Sprague Dawley, rat, in vivo, iv, 2 mg/kg, read-out: C0
[6] = Sprague Dawley, rat, plasma, po, 10 mg/kg
[7] = Sprague Dawley, rat, plasma, po, 10 mg/kg, read-out: Tmax
[8] = Sprague Dawley, rat, plasma, po, 10 mg/kg, plasma, read-out: Cmax

T1 sequence (Q13224 27-1484, species assumed, other chains not shown): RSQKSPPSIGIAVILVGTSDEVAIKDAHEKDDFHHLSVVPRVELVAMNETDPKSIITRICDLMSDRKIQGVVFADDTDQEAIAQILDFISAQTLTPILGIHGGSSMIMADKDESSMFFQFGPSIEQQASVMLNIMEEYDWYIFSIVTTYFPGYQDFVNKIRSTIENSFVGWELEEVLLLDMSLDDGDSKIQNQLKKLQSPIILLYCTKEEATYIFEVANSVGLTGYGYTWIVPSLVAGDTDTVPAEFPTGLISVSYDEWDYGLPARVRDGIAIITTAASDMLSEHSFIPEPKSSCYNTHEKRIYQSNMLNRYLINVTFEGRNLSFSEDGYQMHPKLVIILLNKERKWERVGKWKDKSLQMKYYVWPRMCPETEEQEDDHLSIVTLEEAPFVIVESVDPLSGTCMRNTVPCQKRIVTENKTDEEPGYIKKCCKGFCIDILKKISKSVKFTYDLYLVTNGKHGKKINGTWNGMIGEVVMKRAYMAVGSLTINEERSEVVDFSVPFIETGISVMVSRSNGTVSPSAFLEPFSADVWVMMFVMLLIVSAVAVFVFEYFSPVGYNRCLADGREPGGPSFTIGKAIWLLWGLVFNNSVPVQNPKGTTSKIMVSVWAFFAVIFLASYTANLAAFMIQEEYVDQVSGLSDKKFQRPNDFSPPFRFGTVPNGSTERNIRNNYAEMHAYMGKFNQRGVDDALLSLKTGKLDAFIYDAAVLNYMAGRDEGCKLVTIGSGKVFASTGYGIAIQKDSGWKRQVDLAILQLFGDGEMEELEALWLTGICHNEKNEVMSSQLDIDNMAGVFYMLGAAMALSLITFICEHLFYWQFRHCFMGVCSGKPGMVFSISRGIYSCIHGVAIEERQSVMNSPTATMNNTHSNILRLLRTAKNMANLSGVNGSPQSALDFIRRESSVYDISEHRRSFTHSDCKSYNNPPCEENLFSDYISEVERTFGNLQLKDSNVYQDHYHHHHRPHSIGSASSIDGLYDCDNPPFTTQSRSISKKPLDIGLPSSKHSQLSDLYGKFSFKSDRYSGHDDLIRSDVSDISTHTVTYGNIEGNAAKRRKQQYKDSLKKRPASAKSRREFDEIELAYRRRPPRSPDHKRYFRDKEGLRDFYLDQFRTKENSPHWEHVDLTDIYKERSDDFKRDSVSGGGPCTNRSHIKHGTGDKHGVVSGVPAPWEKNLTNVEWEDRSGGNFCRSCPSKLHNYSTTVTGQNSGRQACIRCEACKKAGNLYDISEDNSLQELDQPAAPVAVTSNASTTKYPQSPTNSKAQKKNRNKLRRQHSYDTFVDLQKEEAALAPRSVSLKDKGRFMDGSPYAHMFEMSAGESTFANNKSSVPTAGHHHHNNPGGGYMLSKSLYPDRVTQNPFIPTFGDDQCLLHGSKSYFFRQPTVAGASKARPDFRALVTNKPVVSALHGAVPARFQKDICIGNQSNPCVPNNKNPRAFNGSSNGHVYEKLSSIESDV
T4 sequence (O15399 28-1336, species assumed, other chains not shown): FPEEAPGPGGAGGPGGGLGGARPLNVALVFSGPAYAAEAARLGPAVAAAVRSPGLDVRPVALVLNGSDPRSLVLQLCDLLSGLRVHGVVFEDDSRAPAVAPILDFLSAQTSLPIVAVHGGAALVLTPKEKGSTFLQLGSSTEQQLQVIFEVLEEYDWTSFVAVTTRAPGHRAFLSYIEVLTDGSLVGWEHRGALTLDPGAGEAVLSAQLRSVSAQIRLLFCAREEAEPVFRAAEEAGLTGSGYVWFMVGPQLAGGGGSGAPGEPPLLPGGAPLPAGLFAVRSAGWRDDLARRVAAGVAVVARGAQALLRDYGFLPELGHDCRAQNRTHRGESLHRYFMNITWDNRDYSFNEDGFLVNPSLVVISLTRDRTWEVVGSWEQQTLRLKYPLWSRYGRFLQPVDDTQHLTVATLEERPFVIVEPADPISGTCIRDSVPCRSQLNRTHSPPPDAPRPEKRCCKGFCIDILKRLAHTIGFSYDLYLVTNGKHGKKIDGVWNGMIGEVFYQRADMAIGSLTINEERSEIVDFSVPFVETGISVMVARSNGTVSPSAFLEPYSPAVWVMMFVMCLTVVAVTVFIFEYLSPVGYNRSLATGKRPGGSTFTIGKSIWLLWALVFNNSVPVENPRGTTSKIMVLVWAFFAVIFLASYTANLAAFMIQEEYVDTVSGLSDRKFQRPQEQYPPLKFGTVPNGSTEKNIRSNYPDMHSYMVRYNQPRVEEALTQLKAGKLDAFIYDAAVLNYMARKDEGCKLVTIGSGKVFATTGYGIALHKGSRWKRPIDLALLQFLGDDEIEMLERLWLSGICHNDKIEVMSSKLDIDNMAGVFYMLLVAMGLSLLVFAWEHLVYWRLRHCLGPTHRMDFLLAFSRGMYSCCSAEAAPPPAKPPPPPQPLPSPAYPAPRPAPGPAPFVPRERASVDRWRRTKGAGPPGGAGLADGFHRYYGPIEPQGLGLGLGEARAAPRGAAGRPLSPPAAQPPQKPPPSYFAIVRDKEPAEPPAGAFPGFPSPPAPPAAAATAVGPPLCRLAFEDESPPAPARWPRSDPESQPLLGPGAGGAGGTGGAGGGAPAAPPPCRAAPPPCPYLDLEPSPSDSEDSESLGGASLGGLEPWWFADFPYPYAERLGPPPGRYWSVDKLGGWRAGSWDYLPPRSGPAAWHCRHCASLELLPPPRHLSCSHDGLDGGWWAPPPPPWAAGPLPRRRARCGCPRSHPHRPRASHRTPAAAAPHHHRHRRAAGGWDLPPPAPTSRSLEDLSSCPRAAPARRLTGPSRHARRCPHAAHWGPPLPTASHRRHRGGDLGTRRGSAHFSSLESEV
T2 sequence (Q12879 23-1464, species assumed, other chains not shown): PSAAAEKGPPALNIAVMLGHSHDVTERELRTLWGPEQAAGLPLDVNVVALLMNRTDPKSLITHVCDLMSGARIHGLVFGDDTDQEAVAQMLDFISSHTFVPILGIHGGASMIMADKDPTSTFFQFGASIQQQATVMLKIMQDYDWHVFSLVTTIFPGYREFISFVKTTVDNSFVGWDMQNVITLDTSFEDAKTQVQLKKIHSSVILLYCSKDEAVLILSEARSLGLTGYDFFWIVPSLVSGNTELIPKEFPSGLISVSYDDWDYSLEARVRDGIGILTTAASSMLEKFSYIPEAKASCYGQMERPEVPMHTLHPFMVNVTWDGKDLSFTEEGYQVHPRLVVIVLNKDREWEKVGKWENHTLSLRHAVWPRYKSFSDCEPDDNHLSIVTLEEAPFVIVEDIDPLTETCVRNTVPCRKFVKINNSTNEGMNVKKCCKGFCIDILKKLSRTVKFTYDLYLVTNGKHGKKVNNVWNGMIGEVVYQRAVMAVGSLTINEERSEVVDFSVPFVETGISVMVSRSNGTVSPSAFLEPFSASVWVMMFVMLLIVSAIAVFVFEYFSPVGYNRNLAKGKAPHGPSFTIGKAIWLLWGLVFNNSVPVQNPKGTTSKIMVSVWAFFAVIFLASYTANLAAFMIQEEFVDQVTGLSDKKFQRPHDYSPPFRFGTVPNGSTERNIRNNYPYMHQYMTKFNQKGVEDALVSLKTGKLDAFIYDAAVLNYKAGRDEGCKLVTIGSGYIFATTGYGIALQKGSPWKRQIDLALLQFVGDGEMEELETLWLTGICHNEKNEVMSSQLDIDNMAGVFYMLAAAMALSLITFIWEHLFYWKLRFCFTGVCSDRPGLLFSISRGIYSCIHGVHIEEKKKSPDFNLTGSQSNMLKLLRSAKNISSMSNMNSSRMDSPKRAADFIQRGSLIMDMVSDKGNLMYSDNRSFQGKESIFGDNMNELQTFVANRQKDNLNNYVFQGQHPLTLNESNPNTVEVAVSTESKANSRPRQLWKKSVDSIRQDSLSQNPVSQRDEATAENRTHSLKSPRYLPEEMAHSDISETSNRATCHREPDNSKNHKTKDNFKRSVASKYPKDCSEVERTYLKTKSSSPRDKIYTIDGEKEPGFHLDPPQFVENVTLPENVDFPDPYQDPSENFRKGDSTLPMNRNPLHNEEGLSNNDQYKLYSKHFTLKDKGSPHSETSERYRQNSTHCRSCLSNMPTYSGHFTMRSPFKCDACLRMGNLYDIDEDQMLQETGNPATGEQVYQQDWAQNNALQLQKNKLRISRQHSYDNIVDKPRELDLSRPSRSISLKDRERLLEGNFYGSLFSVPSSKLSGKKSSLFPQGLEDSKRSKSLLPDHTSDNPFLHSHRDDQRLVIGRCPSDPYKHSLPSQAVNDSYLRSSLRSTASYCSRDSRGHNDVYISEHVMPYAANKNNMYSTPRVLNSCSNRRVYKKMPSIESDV
T3 sequence (O15399 28-1336, species assumed, other chains not shown): as the sequence (O15399 28-1336, species assumed, other chains not shown) above

Row | SMILES | Emax (NMDAR2B) [%] | EC50 (NMDAR2B) [nM] | AUC(0-t) (IV pharmacokinetics; [4]) [ng·h/mL] | clearance (IV pharmacokinetics; [4]) [mL/min/kg] | half-life (IV pharmacokinetics; [4]) [h] | C0 (IV pharmacokinetics; [5]) [ng/mL] | Vd (IV pharmacokinetics; [4]) [L/kg] | CSF Cmax [1] [ng/mL] | Brain Cmax [1] [ng/mL] | AUC(0-t) [1, 6] [ng·h/mL] | bioavailability [1, 6] [%] | Tmax [1, 7] [h] | Cmax [1, 8] [ng/mL] | Emax (NMDAR2A) [%] | EC50 (NMDAR2A) [nM] | Emax (NMDAR2D [2]) [%] | Max Effect (mean number of 50 kHz USVs per 15 seconds) (rats; dose 0.1 mg/kg) | B: log EC50 (NMDAR2B) | T1/2 (IV pharmacokinetics; intravenous 2 mg/kg) [h] | Max Effect (mean number of 50 kHz USVs per 15 seconds) (rats; dose .001-1 mg/kg) | also measured
1 | O=C1NCCC12CCCCN2 (stereo not drawn) [RG-601] | < 100 | < 1 | 2280 | 13.5 | 1.16 | 2850 | 1.14 | 1151 | 1447 | 9510 | 83 | 0.83 | 3990 | < 100 | < 1 | > 100 |  |  |  |  | Significance vs. vehicle (Sprague Dawley rats; 1 wk post-dose): Yes (statistically significant (p<=0.05) from vehicle at dose level shown); % reduction in float time (Sprague Dawley rats; 1 wk post-dose): 34.4%; Significance vs. vehicle (Sprague Dawley rats; 1 h post-dose, floating time in 5 min test): Yes (statistically significant (p<=0.05) from vehicle at dose level shown); % reduction in float time (Sprague Dawley rats; 1 h post-dose): 82.7%
2 | O=C1NCCC12CCCN2 (single isomer, unassigned) [RW-1, 1,7-diazaspiro[4.4]nonan-6-one] | < 100 | < 1 |  |  |  |  |  | 853 |  |  |  | 1 | 4070 | < 100 | ≥ 1 |  | ** (**: 7.7-10) |  |  |  | 
3 | O=C1NCCC12CCCNC2 (stereo not drawn) [RB-1, 2,7-diazaspiro[4.5]decan-1-one] | > 100 |  | 1260 | 25.8 |  | 2070 | 2.79 | 27.4 | 40.2 | 3290 | 52 | 1.17 | 825 | < 100 | < 1 |  |  | − | 3.35 | *** (***:10.1-20) | A: % maximal [3H]MK-801 binding relative to 1 mM glycine (NMDAR2D [3]; second part of table (r25-r35), c3, taken as NMDAR2D): + (<100%=+)
4 | CC(C)(C)OC(=O)N1CCCCC12CCNC2=O (stereo not drawn) [RG-605] |  |  | 1580 | 21 | 0.3 | 3360 | 0.53 | 1211 | 733 |  |  |  |  |  | < 1 | 0 |  | − |  |  | A: % maximal [3H]MK-801 binding relative to 1 mM glycine (NMDAR2B): − (−=0); % F [1]: 81%; AUClast [1]: 6370 ng·h/mL; Cmax ([1]; plasma): 6478 ng/mL; Tmax ([1]; rat, plasma, po, read-out: Tmax): 0.25 h; A: % maximal [3H]MK-801 binding relative to 1 mM glycine (NMDAR2A): + (<100%=+); B: log EC50 (NMDAR2D [3]): −
5 | CC(C)(C)OC(=O)N1CCCC12CCNC2=O (single isomer, unassigned) [RT-1, tert-butyl 6-oxo-1,7-diazaspiro[4.4]nonane-1-carboxylate] | < 100 | < 1 |  |  |  |  |  |  |  |  |  |  |  | < 100 | < 1 |  | ** (**: 7.7-10) |  |  |  | 
6 | O=C1NCCC12CCCNC2 (stereo not drawn) [RC-1, 2,7-diazaspiro[4.5]decan-1-one] |  | < 1 |  |  |  |  |  | 20.8 | 27.6 |  |  |  |  |  | < 1 |  |  |  | 1.36 | *** (***:10.1-20) | A: % maximal [3H]MK-801 binding relative to 1 mM glycine (NMDAR2B): ++ (>100%=++); AUClast (IV pharmacokinetics; intravenous 2 mg/kg): 1511.4 ng·h/mL; Cl (IV pharmacokinetics; intravenous 2 mg/kg): 21.81 mL/min/kg; Vss (IV pharmacokinetics; intravenous 2 mg/kg): 1.84 L/kg; C0 (IV pharmacokinetics; intravenous 2 mg/kg): 2013.4 ng/mL; % F [1]: 49%; AUClast [1]: 3668.7 ng·h/mL; Tmax [1]: 1.67 h; Cmax ([1]; plasma): 990.2 ng/mL; A: % maximal [3H]MK-801 binding relative to 1 mM glycine (NMDAR2A): + (<100%=+); B: log EC50 (NMDAR2D [3]): −
